Literature values in article PMC10891214, “Effects of food and ethnicity on the pharmacokinetics of venadaparib, a next-generation PARP inhibitor, in healthy Korean, Caucasian, and Chinese male subjects” (Investigational New Drugs, 2023).

System: patient-derived xenograft
Design: method as in PMID 36808277
Settings: patient-derived xenograft mouse model; cited from earlier work

SMILES: O=C(c1cc(Cc2n[nH]c(=O)c3ccccc23)ccc1F)N1CCN(C(=O)C2CC2)CC1 [olaparib, reference compound]
- Tumor growth inhibition rate: 118.2%
